From PMC8861050, “Design, synthesis and evaluation of novel 2-oxoindoline-based acetohydrazides as antitumor agents” (Scientific Reports, 2022)

Key:
U937 cells = experiment: Annexin V-FITC/PI apoptosis assay; type: cell-based, human; conditions: 24 h
Experimental: The Annexin V-FITC/PI dual staining assay was used to determine the percentage of apoptotic cells. U937 cells (5 × 10^5/mL per well) were plated in 6-well culture plates and allowed to grow for 24 h. In our first experiment, we examined the effects of 4f, 4h, 4n, 4o, 4p, and PAC-1 on apoptosis at 50 µM. In the second experiment, we examined the dose-dependent effect of 4o at 5, 10, and 30 µM and PAC-1 at 30 µM on apoptosis. The cells were treated with compounds for 24 h, and then harvested. The harvested cells were washed twice with ice-cold PBS and incubated in the dark at room temperature in […] of 1 × binding buffer containing 1 µL Annexin V-FITC and […] PI. After 15 min incubation, cells were analyzed for percentage undergoing apoptosis using a FACScalibur flow cytometer (BD Biosciences). The data were processed using Cell Quest Pro software (BD Biosciences).
Figure 5 Apoptosis (Annexin V/PI) analysis of cells after treatment with some compounds. U937 cells were treated with compounds (50 µM) for 24 h. The harvested cells were incubated with Annexin V-FITC and PI and analyzed by using flow cytometry. Ten thousand cells were acquired (n = 3). UN untreated, VH vehicle (DMSO. 0.1%). Representative dot plots (A). Live cells, left down in dot plot. Early apoptotic cells, right down. Necrotic cells, left up, Late apoptotic cells, right up. Bar graph of late apoptotic cells (B). p values were calculated using one-way ANOVA in GraphPad Software (San Diego, CA, USA). *p < 0.01 vs VH control. TEXT PRINTED IN THE PICTURE: (A) PAC-1: 10.40%; 29.30%; 12.70% | (A) 4f: 0.52%; 6.05%; 5.41% | (A) 4h: 0.89%; 13.20%; 7.67% | (A) 4n: 0.44%; 6.83%; 5.73% | (A) 4o: 0.67%; 17.30%; 8.17% | (A) 4p: 1.60%; 13.00%; 5.86% DOUBTS OF THE COPYIST ABOUT THIS PICTURE: The quadrant percentages are in small italic print over the dot plots, so 3, 5, 6, 8 and 9 cannot always be told apart. All values given are best readings. / PAC-1: 10.40%, 29.30% and 12.70% are best readings (29.30 could be 28.30) / 4f: 0.52%, 6.05% and 5.41% are best readings (6.05 could be 6.06 or 8.05) / 4h: 0.89%, 13.20% and 7.67% are best readings (0.89 could be 0.86 or 0.69) / 4n: 0.44%, 6.83% and 5.73% are best readings (6.83 could be 6.63 or 6.88) / 4o: 0.67%, 17.30% and 8.17% are best readings (8.17 could be 6.17) / 4p: 1.60%, 13.00% and 5.86% are best readings (5.86 could be 5.88 or 5.66) / The picture prints no measure for the percentages; only their quadrant position tells them apart. They are listed upper left, upper right, lower right. / The plots UN (0.70%, 2.31%, 3.03%) and VH (1.75%, 2.43%, 3.57%) are controls, not substances, and are left out of the lines.
Figure 6 Apoptosis (Annexin V/PI) analysis of cells after treatment with different concentrations of compound 4o. U937 cells were treated with compound 4o at 5, 10 and 30 µM or PAC-1 (30 µM) for 24 h. The harvested cells were incubated with Annexin V-FITC and PI and analyzed by using flow cytometry. Ten thousand cells were acquired (n = 3). UN untreated, VH vehicle (DMSO. 0.1%). Representative dot plots (A). Live cells, left down in dot plot. Early apoptotic cells, right down. Necrotic cells, left up, Late apoptotic cells, right up. Bar graph of late apoptotic cells (B). p values were calculated using one-way ANOVA in GraphPad Software (San Diego, CA, USA). *p < 0.01 vs VH control.

PC3 (prostate cancer) = experiment: SRB cytotoxicity assay, PC3; type: cell-based; conditions: Homo sapiens, 48 h incubation, mean ± SEM of 3 independent experiments
How it was run: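 Cells in DMEM were seeded at 3 × 10^4 cells/mL and preincubated 24 h at 37 °C, 5% CO2. Compounds were added in medium at 1% DMSO for 48 h. Cell density was read by sulforhodamine B staining, with IC50 by probit analysis as the mean of three independent screens.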

Q: What does the source list for `COc1ccc(/C=N/NC(=O)CN2C(=O)Cc3cc(F)ccc32)c(O)c1` [Compound 4o, (E)-N'-(2-Hydroxy-4-methoxybenzylidene)-2-(5-fluoro-2-oxoindolin-1-yl)acetohydrazide]?
A: Late apoptotic cell population, dose dependence (U937 cells; U937, 5 µM): increased late apoptotic cell population; Apoptotic effects compared among the representative compounds (U937 cells; U937, 50 µM): more prominent; Induction of apoptosis (Annexin V-FITC/PI) (U937 cells; U937, 50 µM): induced early, and more substantially, late apoptosis; IC50 (PC3 (prostate cancer)): 1830 ± 70 nM
